Key:
CCRF-CEM = assay: Antitumor activity against human CCRF-CEM cells assessed as cell growth inhibition at 10 uM incubated for 48 hrs by sulforhodamine B assay; format: functional; conditions: read-out: GI
HL-60(TB) = assay: Antitumor activity against human HL-60(TB) cells assessed as cell growth inhibition at 10 uM incubated for 48 hrs by sulforhodamine B assay; format: functional; conditions: read-out: GI
K562 = assay: Antitumor activity against human K562 cells assessed as cell growth inhibition at 10 uM incubated for 48 hrs by sulforhodamine B assay; format: functional; conditions: read-out: GI
MOLT-4 = assay: Antitumor activity against human MOLT4 cells assessed as cell growth inhibition at 10 uM incubated for 48 hrs by sulforhodamine B assay; format: functional; conditions: read-out: GI
RPMI-8226 = assay: Antitumor activity against human RPMI8226 cells assessed as cell growth inhibition at 10 uM incubated for 48 hrs by sulforhodamine B assay; format: functional; conditions: read-out: GI
SR = assay: Antitumor activity against human SR cells assessed as cell growth inhibition at 10 uM incubated for 48 hrs by sulforhodamine B assay; format: functional; conditions: read-out: GI
EKVX = assay: Antitumor activity against human EKVX cells assessed as cell growth inhibition at 10 uM incubated for 48 hrs by sulforhodamine B assay; format: functional; conditions: read-out: GI
HOP-92 = assay: Antitumor activity against human HOP92 cells assessed as cell growth inhibition at 10 uM incubated for 48 hrs by sulforhodamine B assay; format: functional; conditions: read-out: GI
NCI-H226 = assay: Antitumor activity against human NCI-H226 assessed as cell growth inhibition at 10 uM incubated for 48 hrs by sulforhodamine B assay; format: functional; conditions: read-out: GI
NCI-H23 = assay: Antitumor activity against human NCI-H23 cells assessed as cell growth inhibition at 10 uM incubated for 48 hrs by sulforhodamine B assay; format: functional; conditions: read-out: GI
NCI-H460 = assay: Antitumor activity against human NCI-H460 assessed as cell growth inhibition at 10 uM incubated for 48 hrs by sulforhodamine B assay; format: functional; conditions: read-out: GI
NCI-H522 = assay: Antitumor activity against human NCI-H522 cells assessed as cell growth inhibition at 10 uM incubated for 48 hrs by sulforhodamine B assay; format: functional; conditions: read-out: GI
COLO 205 = assay: Antitumor activity against human COLO205 cells assessed as cell growth inhibition at 10 uM incubated for 48 hrs by sulforhodamine B assay; format: functional; conditions: read-out: GI
HCC 2998 = assay: Antitumor activity against human HCC2998 cells assessed as cell growth inhibition at 10 uM incubated for 48 hrs by sulforhodamine B assay; format: functional; conditions: read-out: GI
HCT-116 = assay: Antitumor activity against human HCT116 cells assessed as cell growth inhibition at 10 uM incubated for 48 hrs by sulforhodamine B assay; format: functional; conditions: read-out: GI
HCT-15 = assay: Antitumor activity against human HCT15 cells assessed as cell growth inhibition at 10 uM incubated for 48 hrs by sulforhodamine B assay; format: functional; conditions: read-out: GI
HT-29 = assay: Antitumor activity against human HT-29 cells assessed as cell growth inhibition at 10 uM incubated for 48 hrs by sulforhodamine B assay; format: functional; conditions: read-out: GI
KM12 = assay: Antitumor activity against human KM12 cells assessed as cell growth inhibition at 10 uM incubated for 48 hrs by sulforhodamine B assay; format: functional; conditions: read-out: GI
SF-268 = assay: Antitumor activity against human SF268 cells assessed as cell growth inhibition at 10 uM incubated for 48 hrs by sulforhodamine B assay; format: functional; conditions: read-out: GI
SF-295 = assay: Antitumor activity against human SF295 cells assessed as cell growth inhibition at 10 uM incubated for 48 hrs by sulforhodamine B assay; format: functional; conditions: read-out: GI
SNB-19 = assay: Antitumor activity against human SNB-19 cells assessed as cell growth inhibition at 10 uM incubated for 48 hrs by sulforhodamine B assay; format: functional; conditions: read-out: GI
SNB-75 = assay: Antitumor activity against human SNB-75 cells assessed as cell growth inhibition at 10 uM incubated for 48 hrs by sulforhodamine B assay; format: functional; conditions: read-out: GI
U-251 = assay: Antitumor activity against human U251 cells assessed as cell growth inhibition at 10 uM incubated for 48 hrs by sulforhodamine B assay; format: functional; conditions: read-out: GI
LOX IMVI = assay: Antitumor activity against human LOX IMVI cells assessed as cell growth inhibition at 10 uM incubated for 48 hrs by sulforhodamine B assay; format: functional; conditions: read-out: GI
Malme-3M = assay: Antitumor activity against human MALME-3M cells assessed as cell growth inhibition at 10 uM incubated for 48 hrs by sulforhodamine B assay; format: functional; conditions: read-out: GI
M14 = assay: Antitumor activity against human M14 cells assessed as cell growth inhibition at 10 uM incubated for 48 hrs by sulforhodamine B assay; format: functional; conditions: read-out: GI
MDA-MB-435 = assay: Antitumor activity against human MDA-MB-435 cells assessed as cell growth inhibition at 10 uM incubated for 48 hrs by sulforhodamine B assay; format: functional; conditions: read-out: GI
SK-MEL-28 = assay: Antitumor activity against human SK-MEL-28 cells assessed as cell growth inhibition at 10 uM incubated for 48 hrs by sulforhodamine B assay; format: functional; conditions: read-out: GI
UACC-62 = assay: Antitumor activity against human UACC-62 cells assessed as cell growth inhibition at 10 uM incubated for 48 hrs by sulforhodamine B assay; format: functional; conditions: read-out: GI
IGROV-1 = assay: Antitumor activity against human IGROV1 cells assessed as cell growth inhibition at 10 uM incubated for 48 hrs by sulforhodamine B assay; format: functional; conditions: read-out: GI
OVCAR-3 = assay: Antitumor activity against human OVCAR-3 cells assessed as cell growth inhibition at 10 uM incubated for 48 hrs by sulforhodamine B assay; format: functional; conditions: read-out: GI
OVCAR-4 = assay: Antitumor activity against human OVCAR-4 cells assessed as cell growth inhibition at 10 uM incubated for 48 hrs by sulforhodamine B assay; format: functional; conditions: read-out: GI
OVCAR-8 = assay: Antitumor activity against human OVCAR-8 cells assessed as cell growth inhibition at 10 uM incubated for 48 hrs by sulforhodamine B assay; format: functional; conditions: read-out: GI
NCI/ADR-RES = assay: Antitumor activity against human NCI/ADR-RES cells assessed as cell growth inhibition at 10 uM incubated for 48 hrs by sulforhodamine B assay; format: functional; conditions: read-out: GI
SK-OV-3 = assay: Antitumor activity against human SK-OV-3 cells assessed as cell growth inhibition at 10 uM incubated for 48 hrs by sulforhodamine B assay; format: functional; conditions: read-out: GI
786-0 = assay: Antitumor activity against human 786-0 cells assessed as cell growth inhibition at 10 uM incubated for 48 hrs by sulforhodamine B assay; format: functional; conditions: read-out: GI
A498 = assay: Antitumor activity against human A498 cells assessed as cell growth inhibition at 10 uM incubated for 48 hrs by sulforhodamine B assay; format: functional; conditions: read-out: GI
ACHN = assay: Antitumor activity against human ACHN cells assessed as cell growth inhibition at 10 uM incubated for 48 hrs by sulforhodamine B assay; format: functional; conditions: read-out: GI
RXF 393 = assay: Antitumor activity against human RXF 393 cells assessed as cell growth inhibition at 10 uM incubated for 48 hrs by sulforhodamine B assay; format: functional; conditions: read-out: GI
SN12C = assay: Antitumor activity against human SN12C cells assessed as cell growth inhibition at 10 uM incubated for 48 hrs by sulforhodamine B assay; format: functional; conditions: read-out: GI
UO-31 = assay: Antitumor activity against human UO-31 cells assessed as cell growth inhibition at 10 uM incubated for 48 hrs by sulforhodamine B assay; format: functional; conditions: read-out: GI
PC-3 = assay: Antitumor activity against human PC-3 cells assessed as cell growth inhibition at 10 uM incubated for 48 hrs by sulforhodamine B assay; format: functional; conditions: read-out: GI
MCF7 = assay: Antitumor activity against human MCF7 cells assessed as cell growth inhibition at 10 uM incubated for 48 hrs by sulforhodamine B assay; format: functional; conditions: read-out: GI
MDA-MB-231 = assay: Antitumor activity against human MDA-MB-231/ATCC cells assessed as cell growth inhibition at 10 uM incubated for 48 hrs by sulforhodamine B assay; format: functional; conditions: read-out: GI
Hs-578T = assay: Antitumor activity against human HS 578T cells assessed as cell growth inhibition at 10 uM incubated for 48 hrs by sulforhodamine B assay; format: functional; conditions: read-out: GI
BT-549 = assay: Antitumor activity against human BT-549 cells assessed as cell growth inhibition at 10 uM incubated for 48 hrs by sulforhodamine B assay; format: functional; conditions: read-out: GI
MDA-MB-468 = assay: Antitumor activity against human MDA-MB-468 cells assessed as cell growth inhibition at 10 uM incubated for 48 hrs by sulforhodamine B assay; format: functional; conditions: read-out: GI
SW-620 = assay: Antitumor activity against human SW620 cells assessed as cell growth inhibition at 10 uM incubated for 48 hrs by sulforhodamine B assay; conditions: SW-620, 48 h, read-out: GI

**Q.** What does the source list for `Oc1ccccc1-c1nc2c3ccccc3c3ccccc3c2[nH]1`?
**A.** inhibition of growth at 10 µM (CCRF-CEM): < 10%; inhibition of growth at 10 µM (HL-60(TB)): < 10%; inhibition of growth at 10 µM (K562): 12.1%; inhibition of growth at 10 µM (MOLT-4): < 10%; inhibition of growth at 10 µM (RPMI-8226): 13.3%; inhibition of growth at 10 µM (SR): 10.8%; inhibition of growth at 10 µM (EKVX): 19.4%; inhibition of growth at 10 µM (HOP-92): 16.4%; inhibition of growth at 10 µM (NCI-H226): 11.6%; inhibition of growth at 10 µM (NCI-H23): 10.7%; inhibition of growth at 10 µM (NCI-H460): < 10%; inhibition of growth at 10 µM (NCI-H522): < 10%; inhibition of growth at 10 µM (COLO 205): < 10%; inhibition of growth at 10 µM (HCC 2998): < 10%; inhibition of growth at 10 µM (HCT-116): 12.3%; inhibition of growth at 10 µM (HCT-15): < 10%; inhibition of growth at 10 µM (HT-29): < 10%; inhibition of growth at 10 µM (KM12): < 10%; inhibition of growth at 10 µM (SF-268): < 10%; inhibition of growth at 10 µM (SF-295): < 10%; inhibition of growth at 10 µM (SNB-19): < 10%; inhibition of growth at 10 µM (SNB-75): 11.1%; inhibition of growth at 10 µM (U-251): < 10%; inhibition of growth at 10 µM (LOX IMVI): < 10%; inhibition of growth at 10 µM (Malme-3M): < 10%; inhibition of growth at 10 µM (M14): < 10%; inhibition of growth at 10 µM (MDA-MB-435): < 10%; inhibition of growth at 10 µM (SK-MEL-28): < 10%; inhibition of growth at 10 µM (UACC-62): 10.1%; inhibition of growth at 10 µM (IGROV-1): 23.5%; inhibition of growth at 10 µM (OVCAR-3): < 10%; inhibition of growth at 10 µM (OVCAR-4): < 10%; inhibition of growth at 10 µM (OVCAR-8): < 10%; inhibition of growth at 10 µM (NCI/ADR-RES): < 10%; inhibition of growth at 10 µM (SK-OV-3): < 10%; inhibition of growth at 10 µM (786-0): < 10%; inhibition of growth at 10 µM (A498): < 10%; inhibition of growth at 10 µM (ACHN): 11.7%; inhibition of growth at 10 µM (RXF 393): < 10%; inhibition of growth at 10 µM (SN12C): 24.4%; inhibition of growth at 10 µM (UO-31): 37.9%; inhibition of growth at 10 µM (PC-3): 11.8%; inhibition of growth at 10 µM (MCF7): 26.3%; inhibition of growth at 10 µM (MDA-MB-231): 23.8%; inhibition of growth at 10 µM (Hs-578T): < 10%; inhibition of growth at 10 µM (BT-549): < 10%; inhibition of growth at 10 µM (MDA-MB-468): < 10%; inhibition of growth at 10 µM (SW-620): < 10%

Source: ChEMBL document CHEMBL4665624, “Synthesis of 5-(4-(1H-phenanthro[9,10-d]imidazol-2-yl)benzylidene)thiazolidine-2,4-dione as promising DNA and serum albumin-binding agents and evaluation of antitumor activity” (Eur J Med Chem, 2019)
